ChEMBL document CHEMBL1240418, “Carbonic anhydrase inhibitors. Regioselective synthesis of novel 1-substituted 1,4-dihydro-4-oxo-3-pyridinesulfonamides and their inhibition of the human cytosolic isozymes I and II and transmembrane cancer-associated isozymes IX and XII” (Eur J Med Chem, 2010)

What follows are compounds tested against Carbonic anhydrase 9 (Homo sapiens, UniProt Q16790).

In order of rising Ki:
1. NS(=O)(=O)c1cn(-c2ccc([N+](=O)[O-])cc2[N+](=O)[O-])ccc1=O  5.8 nM
2. NS(=O)(=O)c1cn(-c2ccc([N+](=O)[O-])c3[n-][o+]nc23)ccc1=O  6.9 nM
3. Cn1ccc(=O)c(S(N)(=O)=O)c1  7.1 nM
4. NS(=O)(=O)c1cn(Cc2ccccc2)ccc1=O  7.8 nM
5. NS(=O)(=O)c1cn(CC(=O)c2ccc(Cl)c(Cl)c2)ccc1=O  8.6 nM
6. NS(=O)(=O)c1cn(CC(=O)c2ccc(F)cc2)ccc1=O  9.7 nM
7. NS(=O)(=O)c1cn(CC(=O)c2ccc(Cl)cc2)ccc1=O  11.8 nM
8. NS(=O)(=O)c1cn(CC(=O)c2cccc([N+](=O)[O-])c2)ccc1=O  11.9 nM
9. NC(=O)Cn1ccc(=O)c(S(N)(=O)=O)c1  64 nM
10. COC(=O)Nc1ccccc1C(=O)n1ccc(=O)c(S(N)(=O)=O)c1  96 nM
11. NS(=O)(=O)c1cn(CC(=O)c2ccc3ccccc3c2)ccc1=O  118 nM
